Measurements reported in US20100099652A1, “NOVEL COMPOSITION BASED ON CHOLEST-4-EN-3-ONE OXIME” (TROPHOS, priority 2007, published 2010).
Converted amounts (≈) assume the structure as drawn.

Key:
[1] = Stability of cholest-4-en-3-one oxime in different oils (impurities by HPLC UV at 255 nm); format: physicochemical; conditions: 15 mg/ml, 60° C., 15 days
Description: The stability of cholest-4-en-3-one oxime was tested in 12 different oils. The compound is added to the oil at a concentration of 15 mg/ml in the form of micronized powder, and the mixture is placed in an oven at 60° C. for 15 days. […] The major impurity obtained is cholestenone. Other impurities can also appear, certain of which are known (and known to be stable), whereas other impurities appearing are unknown, and the potential toxicity or stability of which is therefore not known.
The product is considered to be very stable (++, very stable) in a given oil if after the incubation for 15 days in the oven at 60° C., the percentage of the measured total area under the curve of the chromatogram obtained corresponding to peaks of degradation products of cholest-4-en-3-one oxime represents less than 1%, and these are known, stable products. The product is considered stable (+, stable) in an oil if after the 15 days spent in the oven at 60° C., the percentage of the measured total area under the curve of the chromatogram obtained corresponding to peaks of degradation products of cholest-4-en-3-one oxime represents less than 1%, but corresponds to unknown degradation products. The product is considered unstable (−, instable) in an oil if after the 15 days spent in the oven at 60° C., the percentage of the measured total area under the curve of the chromatogram obtained corresponding to peaks of degradation products of cholest-4-en-3-one oxime represents more than 1%.

[2] = Maximum solubility of cholest-4-en-3-one oxime in water and in different oils; format: physicochemical

solubility ([2]; castor oil, oil or lipid): < 15 mg/mL
solubility ([2]; cotton oil, oil or lipid): 28 mg/mL (≈ 70.1 mM)
solubility ([2]; ground nut oil, oil or lipid): < 15 mg/mL
solubility ([2]; oil or lipid, Mixture of medium-chain triglycerides (ESTASAN ®, MYGLIOL ®)): 45 mg/mL (≈ 113 mM)
solubility ([2]; olive oil, oil or lipid): 40 mg/mL (≈ 100 mM)
solubility ([2]; rapeseed oil, oil or lipid): < 15 mg/mL
solubility ([2]; sesame oil, oil or lipid): 35 mg/mL (≈ 87.6 mM)
solubility ([2]; soya oil, oil or lipid): 30 mg/mL (≈ 75.1 mM)
solubility ([2]; water): 0.001 mg/mL (≈ 0.0025 mM)
SMILES: CC(C)CCC[C@@H](C)[C@H]1CC[C@H]2[C@@H]3CCC4=CC(=NO)CC[C@]4(C)[C@H]3CC[C@]12C [cholest-4-en-3-one oxime]
stability ([1]; Almond oil): − (major instability of the product in the oil tested, with release of more than 1% degradation products, over 2 weeks at 60° C.)
stability ([1]; Caster oil): + (compound which is stable in the oil tested, with release of less than 1% unknown degradation products, over 2 weeks at 60° C.)
stability ([1]; Corn oil): − (major instability of the product in the oil tested, with release of more than 1% degradation products, over 2 weeks at 60° C.)
stability ([1]; Cotton oil): ++ (compound which is very stable in the oil tested, with release of less than 1% stable known degradation products, over 2 weeks at 60° C.)
stability ([1]; Ground nut oil): + (compound which is stable in the oil tested, with release of less than 1% unknown degradation products, over 2 weeks at 60° C.)
stability ([1]; Mixture of medium-chain triglycerides (ESTASAN ®, MYGLIOL ®)): ++ (compound which is very stable in the oil tested, with release of less than 1% stable known degradation products, over 2 weeks at 60° C.)
stability ([1]; Oleic acid): − (major instability of the product in the oil tested, with release of more than 1% degradation products, over 2 weeks at 60° C.)
stability ([1]; Olive oil): ++ (compound which is very stable in the oil tested, with release of less than 1% stable known degradation products, over 2 weeks at 60° C.)
stability ([1]; Rapeseed oil): + (compound which is stable in the oil tested, with release of less than 1% unknown degradation products, over 2 weeks at 60° C.)
stability ([1]; Sesame oil): ++ (compound which is very stable in the oil tested, with release of less than 1% stable known degradation products, over 2 weeks at 60° C.)
stability ([1]; Soya oil): ++ (compound which is very stable in the oil tested, with release of less than 1% stable known degradation products, over 2 weeks at 60° C.)
stability ([1]; Sunflower oil): − (major instability of the product in the oil tested, with release of more than 1% degradation products, over 2 weeks at 60° C.)
